Test results taken from ChEMBL document CHEMBL2385072, “Development of oleanane-type triterpenes as a new class of HCV entry inhibitors” (J Med Chem, 2013).

How the values were obtained:
Settings in all cases: HEK-293T
[1] = system: Vesicular stomatitis virus; experiment: Antiviral activity against pseudo VSV infected in human 293T cells assessed as inhibition of vesicular stromatis G protein pseudo particles entry at 1 uM after 72 hrs by luciferase reporter gene assay; type: functional
[2] = system: Hepatitis C virus; experiment: Antiviral activity against pseudo HCV infected in human 293T cells assessed as inhibition of HCV pseudo particles entry at 5 uM after 72 hrs by luciferase reporter gene assay; type: functional, Hepacivirus hominis
[3] = system: Vesicular stomatitis virus; experiment: Antiviral activity against pseudo VSV infected in human 293T cells assessed as inhibition of vesicular stromatis G protein pseudo particles entry at 5 uM after 72 hrs by luciferase reporter gene assay; type: functional
[4] = system: Hepatitis C virus; experiment: Antiviral activity against pseudo HCV infected in human 293T cells assessed as inhibition of HCV pseudo particles entry at 1 uM after 72 hrs by luciferase reporter gene assay; type: functional, Hepacivirus hominis

Row | SMILES | inhibition at 1 µM [1] [%] | inhibition at 5 µM [2] [%] | inhibition at 5 µM [3] [%] | inhibition at 1 µM [4] [%]
1 | CC1(C)CC[C@]2(C(=O)O)[C@H](O)C[C@]3(C)C(=CC[C@@H]4[C@@]5(C)CCC(N)C(C)(C)[C@@H]5CC[C@]43C)[C@@H]2C1 (some centres not stated) | 23.6 | 10.5 | 28.4 | 12.1
2 | CC(=O)OC[C@H]1O[C@H](O[C@H]2[C@H](OC(C)=O)[C@@H](OC(C)=O)[C@H](OC(=O)[C@]34CCC(C)(C)C[C@H]3C3=CC[C@@H]5[C@@]6(C)CC[C@H](O)C(C)(C)[C@@H]6CC[C@@]5(C)[C@]3(C)C[C@H]4O)O[C@@H]2COC(C)=O)[C@H](OC(C)=O)[C@@H](OC(C)=O)[C@@H]1OC(C)=O | 20.9 | 50 | 23.4 | 36.5
3 | CC(=O)OC[C@H]1O[C@@H](n2cc(CNC(=O)[C@]34CCC(C)(C)C[C@H]3C3=CC[C@@H]5[C@@]6(C)CC[C@H](O)C(C)(C)[C@@H]6CC[C@@]5(C)[C@]3(C)C[C@H]4O)nn2)[C@H](OC(C)=O)[C@@H](OC(C)=O)[C@H]1OC(C)=O | 24.3 | 66.5 | 30.6 | 20.4
4 | CC(=O)O[C@H]1[C@H](OC(C)=O)[C@H](OC(C)=O)CO[C@H]1n1cc(CNC(=O)[C@]23CCC(C)(C)C[C@H]2C2=CC[C@@H]4[C@@]5(C)CC[C@H](O)C(C)(C)[C@@H]5CC[C@@]4(C)[C@]2(C)C[C@H]3O)nn1 | -6.6 | 72.6 | 20.9 | 26.3
5 | CC1(C)CC[C@]2(C(=O)NCc3cn([C@@H]4OC[C@@H](O)[C@H](O)[C@@H]4O)nn3)[C@H](O)C[C@]3(C)C(=CC[C@@H]4[C@@]5(C)CC[C@H](O)C(C)(C)[C@@H]5CC[C@]43C)[C@@H]2C1 | 7 | 43.2 | 35.2 | 20.3
6 | CC(=O)OC[C@H]1O[C@@H](OC(=O)[C@]23CCC(C)(C)C[C@H]2C2=CC[C@@H]4[C@@]5(C)CC[C@H](O)C(C)(C)[C@@H]5CC[C@@]4(C)[C@]2(C)C[C@H]3O)[C@H](OC(C)=O)[C@@H](OC(C)=O)[C@@H]1OC(C)=O | 3.7 | 78.3 | 13.9 | 35.7
7 | CC1(C)CC[C@]2(C(=O)NCc3cn([C@@H]4O[C@H](CO)[C@@H](O[C@@H]5O[C@H](CO)[C@H](O)[C@H](O)[C@H]5O)[C@H](O)[C@H]4O)nn3)[C@H](O)C[C@]3(C)C(=CC[C@@H]4[C@@]5(C)CC[C@H](O)C(C)(C)[C@@H]5CC[C@]43C)[C@@H]2C1 | 47 | 14.6 | 47.3 | 23.1
8 | CC(=O)OC[C@H]1O[C@@H](n2cc(CNC(=O)[C@]34CCC(C)(C)C[C@H]3C3=CC[C@@H]5[C@@]6(C)CC[C@H](O)C(C)(C)[C@@H]6CC[C@@]5(C)[C@]3(C)C[C@H]4O)nn2)[C@H](OC(C)=O)[C@@H](OC(C)=O)[C@@H]1O[C@H]1O[C@H](COC(C)=O)[C@@H](OC(C)=O)[C@H](OC(C)=O)[C@H]1OC(C)=O | 13.2 | 79.7 | 28.9 | 56.4
9 | CC1(C)CC[C@]2(C(=O)NCCCNC(=O)[C@]34CCC(C)(C)C[C@H]3C3=CC[C@@H]5[C@@]6(C)CC[C@H](O)C(C)(C)[C@@H]6CC[C@@]5(C)[C@]3(C)C[C@H]4O)[C@H](O)C[C@]3(C)C(=CC[C@@H]4[C@@]5(C)CC[C@H](O)C(C)(C)[C@@H]5CC[C@]43C)[C@@H]2C1 | 18.7 | 58.2 | 27.6 | 44.6
10 | COC(=O)[C@]12CCC(C)(C)C[C@H]1[C@H]1C(=O)C[C@@H]3[C@@]4(C)CC[C@H](O)C(C)(C)[C@@H]4CC[C@@]3(C)[C@]1(C)C[C@H]2O | 42.7 | -8.7 | 46.1 | 4.9
11 | COC(=O)[C@]12CCC(C)(C)C[C@H]1C1=CC[C@@H]3[C@@]4(C)CC[C@H](O[Si](C)(C)C(C)(C)C)C(C)(C)[C@@H]4CC[C@@]3(C)[C@]1(C)CC2=O | 45.3 | -3.8 | 40.2 | 11.5
12 | CC1(C)CC[C@]2(C(=O)O[C@@H]3OC[C@@H](O)[C@@H](O)[C@@H]3O)[C@H](O)C[C@]3(C)C(=CC[C@@H]4[C@@]5(C)CC[C@H](O)C(C)(C)[C@@H]5CC[C@]43C)[C@@H]2C1 | 15.6 | 54.6 | 5.8 | 34.7
13 | COC(=O)[C@]12CCC(C)(C)C[C@H]1C1=CC[C@@H]3[C@@]4(C)CC=CC(C)(C)[C@@H]4CC[C@@]3(C)[C@]1(C)C[C@H]2O | 7.6 | -8.9 | 9.7 | -3.3
